Source: patent US8569229B2, “Compositions and methods which modulate G-protein signaling for the treatment of inflammatory disorders such as asthma and allergic conjunctivitis” (The Children's Hospital of Philadelphia, priority 2008, dated 2013)
Values joined by “and” are separate entries in the source; they are usually repeats but may differ in a detail not shown here. Identical values can stand only once. “Also recorded” adds a separate entry of the source.

Experiments:
[1] = system: rabbit ASM tissues; assay: Constrictor responsiveness to acetylcholine (ACh) in isolated rabbit ASM tissues, isometric tension in organ bath; conditions: for effect of pretreatment on PGE2-induced increase in constrictor responsiveness to ACh: PGE2 100 nM x 24 hr; for effect of pretreatment on salmeterol-induced increase in constrictor responsiveness to ACh: salmeterol 10 μM x 24 hr; for effect of the agent alone on constrictor responses to ACh: vehicle-exposed control tissues
Description: (§1) Detection of PDE4D5 mRNA transcripts: Total RNA was extracted from the cultured ASM cells using the TRIzol method (Invitrogen), and cDNAs were isolated by RT-PCR using the SuperScript First Strand Synthesis System kit from Invitrogen, with the following oligonucleotide primer sets (Integrated DNA Technologies): for PDE4D5, 5′-[…]-3′ (forward; SEQ ID NO: 2) and 5′-[…]-3′ (reverse; SEQ ID NO: 3); and for β-actin, 5′-[…]-3′ (forward; SEQ ID NO: 4) and 5′-[…]-3′ (reverse; SEQ ID NO: 5). The reaction volume was 20 μl and cycling conditions used were 35 cycles of 30 sec denaturation at 95° C., followed by 30 sec annealing at 60° C. and elongation at 72° C. for 30 sec. Ex-Tag (Takara Biotechnology) was used as DNA polymerase. […] Following protein extraction and the addition of gel-loading buffer, the extracts were loaded on a 10% SDS-PAGE gel for immunoblotting after transfer to a PVDF membrane. The membranes were then incubated overnight with monoclonal mouse anti-human primary antibodies directed against phospho-CREB and -ATF1, phospho-ERK1/2, or α-actin, and levels were detected by ECL after a 1-hr incubation with a 1:2,000 dilution of HRP-conjugated rabbit anti-mouse secondary antibody, followed by exposure to autoradiography film. The protein band intensities were quantified by densitometry. siRNA-mediated knockdown of PKA: ASM cells were seeded into 6-well plates and, at ˜40% confluency, the medium was replaced with the reduced serum-containing medium, Opti-MEM (Invitrogen). The cells were then transfected twice during a 24-hr interval with two pools of three siRNA duplexes, each pool targeted against the human PKAα or PKAγ catalytic subunits (Santa Cruz Biotechnology; sc-36240 and sc-36236, respectively), or with a non-targeted control (scrambled) siRNA duplex, using Oligofectamine (Invitrogen) as the transfection agent. The pools of siRNAs were applied to each well at a final concentration of 100 nM for each siRNA preparation. […] Transfection of ASM cells with adeno-βARK-ct: Adenovirus (adeno)-βARK-ct, an adenovirus vector encoding the βARK1 carboxyl-terminal domain which blocks Gβγ signaling (25,26), and adeno-β-gal, an adenovirus vector expressing lacZ as a negative control, were constructed using the AdenoX adenovirus construction kit (BD-Clontech). Recombinant plaques were isolated and propagated in HEK293 cells (Invitrogen), with viral purification using the cesium chloride gradient method, and viral titer detected by plaque assay. The ASM cells were transfected with either of the adenoviral vectors at a multiplicity of infection (MOI) of 100, and experiments were conducted at 24 hr following adenoviral tranfections. Pharmacodynamic studies of constrictor and relaxation responsiveness in rabbit ASM tissues: Following initial sedation and subsequent general anesthesia with intramuscular injections of xylazine (10 mg/kg) and ketamine (50 mg/kg), respectively, rabbits were sacrificed with an intravenously administered overdose of sodium pentobarbital (100 mg/kg). As described previously (16), the tracheae were excised via open thoracotomy, the loose connective tissue and epithelium were scraped and removed, and the tracheae were divided into 8 ring segments, each of 6-8 mm in length. […] After these incubations, the tissues were placed in organ baths containing modified Krebs-Ringer solution aerated with 5% CO2 in oxygen (pH of 7.35-7.40), and attached to force transducers to continuously monitor isometric tension. […] The constrictor and relaxation dose-response curves were analyzed with respect to each tissue's maximal isometric contractile force (Tmax) to ACh and maximal relaxation response (Rmax) to isoproterenol from the initial level of active cholinergic contraction. Statistical analyses: Results are expressed as mean±SE values. Comparisons between groups were made using the Student's t-test (two-tailed) or ANOVA with Tukey's post-test analysis, where appropriate.

[2] = system: PDE4D5 mRNA; assay: Detection of PDE4D5 mRNA transcripts by RT-PCR in ASM cells; type: cell-based, human; conditions: for time of peak PDE4D5 mRNA induction / peak PDE4D5 mRNA expression, fold above unstimulated cells: salmeterol or isoproterenol 10 μM; for peak PDE4D5 mRNA expression, fold above unstimulated cells: densitometric analysis, 3 experiments
Description: as §1

[3] = system: CREB/ATF1; assay: Immunoblot analysis of CREB/ATF1 phosphorylation in ASM cells; type: cell-based, human; conditions: PGE2 100 nM; for phosphorylation of CREB and ATF1 in cells treated with the agent / time of peak CREB/ATF1 phosphorylation: isoproterenol 10 μM
Description: as §1

[4] = system: human ASM cells; assay: Assay of cAMP PDE activity in ASM cell lysates; type: cell-based; conditions: for cAMP PDE (PDE4) activity relative to vehicle-treated control cells: cells exposed 24 hr to the agent; for PDE activity, fold above control: cells incubated 24 hr with the agent (PGE2 or forskolin 100 μM; salmeterol or isoproterenol 10 μM)
Method: Assay of cAMP PDE activity: Levels of cAMP PDE activity were assayed in ASM cell lysates using a colorimetric, non-radioactive enzymatic assay kit from Biomol, as per the manufacture's protocol. PDE activity was determined following exposure of ASM cells for 24 hr to either vehicle alone (control), PGE2 (100 μM), or forskolin (100 μM) in the absence and presence of pretreatment with rolipram (10 μM), cycloheximide (100 μM), actinomycin D (4 μM), or H89 (10 μM).
In each case, the measured levels of PDE activity were standardized to the protein content in the cell extracts.

[5] = system: rabbit ASM tissues; assay: Relaxation responsiveness to isoproterenol in isolated rabbit ASM tissues half-maximally contracted with ACh; conditions: for effect of pretreatment on PGE2-induced impaired relaxation to isoproterenol: PGE2 100 nM x 24 hr; for effect of pretreatment on salmeterol-induced impaired relaxation to isoproterenol: salmeterol 10 μM x 24 hr
Description: as §1

[6] = system: ERK1/2; assay: Immunoblot analysis of ERK1/2 phosphorylation in ASM cells; type: cell-based, human; conditions: for time of peak ERK1/2 phosphorylation / ERK1/2 phosphorylation in cells treated with the agent: isoproterenol or salmeterol 10 μM; for ERK1/2 phosphorylation in cells treated with the agent: PGE2 or forskolin 100 nM; for increase in ERK1/2 phosphorylation, fold above control (vehicle-treated) cells: densitometric ratios, mean±SE, PGE2 30 min, isoproterenol 20 min
Description: as §1

[7] = system: human ASM cells; assay: Assay of cAMP PDE activity in ASM cell lysates; type: cell-based; conditions: for effect of pretreatment on PGE2- and forskolin-induced increases in PDE activity: PGE2 or forskolin x 24 hr (100 μM in text, 100 nM in legends); for effect of pretreatment on salmeterol- and isoproterenol-induced increase in PDE activity: salmeterol or isoproterenol 10 μM x 24 hr
[8] = system: human ASM cells; assay: Assay of cAMP accumulation in cultured human ASM cells; type: cell-based
Description: Animals: Adult New Zealand White rabbits were used in this study, which was approved by the Biosafety and Animal Research Committee of the Joseph Stokes Research Institute at Children's Hospital of Philadelphia. The animals had no signs of respiratory disease for several weeks before the study, and their care and use were in accordance with the “Guide for the Care and Use of Laboratory Animals” prepared by the Institute of Laboratory Animal Resources, National Research Council. Culture and treatment of ASM cells: The human ASM cells were grown in SmBm media supplemented with 10% FBS (BioWhittaker) and maintained throughout in a humidified incubator containing 5% CO2 in air at 37° C. The experimental protocols involved growing the cells to ˜95% confluence in the above medium. […] Assay of cAMP accumulation: In initial studies, intracellular cAMP levels were determined in near confluent ASM cell cultures at varying times following treatment of ASM cells with varying concentrations of isoproterenol (0.1 to 100 μM). […]
Thereafter, in the continued presence of these treatments, cells were exposed for 5 min to isoproterenol (10 μM) at 37° C., and intracellular cAMP concentrations were determined per manufacturer's protocols using a direct cAMP Enzyme Immunoassay Kit (R&D Systems, Minneapolis, Minn.). In both cases, the cAMP measurements were expressed in units of picomoles/milligram protein.

[9] = tissues exposed 24 hr to the agent
[10] = forskolin 100 μM x 24 hr, data not shown

SMILES	effect of pretreatment on PGE2-induced increase in constrictor responsiveness to ACh [1]	effect of pretreatment on salmeterol-induced increase in constrictor responsiveness to ACh [1]	effect of the agent alone on constrictor responses to ACh [1]	effect of pretreatment on PGE2-induced impaired relaxation to isoproterenol [5]	effect of pretreatment on salmeterol-induced impaired relaxation to isoproterenol [5]	effect of pretreatment on PGE2- and forskolin-induced increases in PDE activity [7]	effect of pretreatment on salmeterol- and isoproterenol-induced increase in PDE activity [7]	time of peak PDE4D5 mRNA induction ([2]; PGE2 100 nM)	peak PDE4D5 mRNA expression, fold above unstimulated cells ([2]; PGE2 100 nM)	phosphorylation of CREB and ATF1 in cells treated with the agent [3]	time of peak CREB/ATF1 phosphorylation [3]	cAMP PDE (PDE4) activity relative to vehicle-treated control cells [4]	PDE activity, fold above control [4]	time of peak ERK1/2 phosphorylation ([6]; PGE2 100 nM)	ERK1/2 phosphorylation in cells treated with the agent [6]	increase in ERK1/2 phosphorylation, fold above control (vehicle-treated) cells [6]	also measured
O=S(=O)(NCCNC/C=C/c1ccc(Br)cc1)c1cccc2cnccc12 [H89]	abrogated	completely abrogated; also recorded: prevents	no significant effect; also recorded: did not exhibit any significant changes	abrogated	completely ablated; also recorded: prevents	abrogated; also recorded: ablated	prevented; also recorded: ablated	–	–	–	–	–	–	–	–	–	effect of pretreatment on PGE2-induced upregulated PDE4D5 mRNA expression ([2]; PGE2 100 nM, 6 hr): largely prevented; also recorded: ablated; effect of pretreatment on β2AR agonist (isoproterenol)-induced upregulated PDE4D5 mRNA expression ([2]; isoproterenol 10 μM, 6 hr): largely prevented; also recorded: ablated; effect on PGE2-induced phosphorylation of CREB/ATF1 ([3]; 30 min): abrogated; also recorded: ablated; effect of the agent alone on basal PDE activity ([4]; no cAMP-elevating agent): no significant change; also recorded: neither H89 nor U0126 alone had a significant effect; effect of the agent alone on relaxation responses to isoproterenol ([5]; vehicle-exposed control tissues): no significant effect; also recorded: did not exhibit any significant changes; effect on PGE2-induced phosphorylation of ERK1/2 ([6]; PGE2 100 nM, 30 min): abrogated; also recorded: ablated
CCCCC[C@H](O)/C=C/[C@H]1[C@H](O)CC(=O)[C@@H]1C/C=C\CCCC(=O)O [PGE2, prostaglandin (PG)E2]	–	–	–	–	–	–	–	6 h	5.9 fold	transiently increased phosphorylation; also recorded: transiently upregulated expression	30 min	significantly increased; also recorded: significant increase	3.74 fold	30 min	increased expression of phosphorylated ERK1/2; also recorded: significantly increased	3.76±0.64 fold	constrictor responsiveness to ACh relative to vehicle-treated controls [1, 9]: significantly increased constrictor responses; also recorded: increased constrictor responsiveness; isoproterenol-induced cAMP accumulation after 24 hr exposure to the agent ([8]; isoproterenol 1.0 μM, 5 min, PGE2 100 nM or salmeterol 10 μM x 24 hr, no rolipram): significantly reduced cAMP responses; also recorded: significantly attenuated; maximal relaxation (Rmax) response to isoproterenol ([5]; mean±SE, tissues exposed 24 hr to the agent (PGE2 100 nM; salmeterol 10 μM)): 31.4±5.4%; relaxation responsiveness to isoproterenol relative to vehicle-treated controls [5, 9]: impaired relaxation responses; also recorded: impaired ASM relaxation
CC(C)NCC(O)c1ccc(O)c(O)c1 (centres unmarked) [isoproterenol]	–	–	–	–	–	–	–	6 h	5.7 fold	transiently increased phosphorylation	30 min	significantly increased	~2 fold	20 min	increased phosphorylation of ERK1/2; also recorded: enhanced ERK1/2 phosphorylation	2.30±0.18 fold and 2.3 fold	–
COc1ccc(C2CNC(=O)C2)cc1OC1CCCC1 (centres unmarked) [rolipram]	completely abrogated; also recorded: prevents	completely abrogated; also recorded: prevents	only modestly decreased constrictor responses; also recorded: did not exhibit any significant changes; also recorded: no significant effect	completely ablated; also recorded: prevents	completely ablated; also recorded: prevents	completely abrogated; also recorded: ablated	completely abrogated; also recorded: ablated	–	–	–	–	–	–	–	–	–	effect of pretreatment on forskolin-induced increase in constrictor responsiveness to ACh [1, 10]: completely abrogated; isoproterenol-induced cAMP response in PGE2-exposed cells pretreated with the agent ([8]; PGE2 100 nM x 24 hr, rolipram 10 μM): preserved; also recorded: unaltered; isoproterenol-induced cAMP accumulation in cells pretreated with the agent ([8]; rolipram 10 μM, isoproterenol 1.0 μM, 5 min): increased isoproterenol-induced cAMP accumulation; also recorded: slightly increased; isoproterenol-induced cAMP response in salmeterol-exposed cells co-treated with the agent ([8]; salmeterol 10 μM x 24 hr, rolipram 10 μM): largely preserved; also recorded: unaltered; effect of pretreatment on forskolin-induced impaired relaxation to isoproterenol [5, 10]: completely abrogated
